According to the NIST ThermoML archive (doi:10.1016/j.fluid.2007.10.016):
Numbers after ± are expanded uncertainties.

Legend:
[1] = refractive index (Na D-line) (dimensionless); conditions: 298.15 K; 101.33 kPa; Liquid; Standard Abbe refractometry
[2] = Liquid; for mass density: 298.15 K, 101.33 kPa; for vapor or sublimation pressure: Ebulliometric method (Recirculating still)

| refractive index [1] | mass density [2] [kg/m3] | vapor or sublimation pressure ([2]; 330 K) [kPa] | vapor or sublimation pressure ([2]; 340 K) [kPa] | Structure (SMILES) |
| --- | --- | --- | --- | --- |
| 1.38894 ± 0.00072 | 687.79 ± 0.41 | 25.47 ± 0.14 | 36.64 ± 0.19 | CC(C)CC(C)(C)C [2,2,4-trimethylpentane] |
| 1.3862 ± 0.00072 | 799.55 ± 0.45 | 27.69 ± 0.16 | 40.45 ± 0.2 | CC(=O)C(C)C [3-methyl-2-butanone] |
| 1.37504 ± 0.00072 | 780.91 ± 0.31 | 33.25 ± 0.19 | 52.97 ± 0.26 | CC(C)O [propan-2-ol] |
